The nature of series [1]: Cytotoxicity assay, proliferation of exponentially growing MDBK cells (MTS/PMS). Type of series: cell-based, bovine. The settings on record: bovine. As for the experimental part: Assays were carried out, as described previously.
The subject of a further series is BVDV NADL virus. Description: CPE-based antiviral assay, BVDV NADL in MDBK cells (MTS/PMS). Conditions: for EC50: Bovine viral diarrhea virus isolates and strains, MDBK, 72 h; for S.I.: selectivity index, CC50 vs EC50.
The mark [2] stands for this setting: sheet CSFCII#, potency relative to TO502-2403 (EC50 0.2 µM).
Setting [3] is: sheet CSFCI#, potency relative to TO505-6180 (EC50 0.07 µM).

20 compounds from article PMC7144022, “Quinolinecarboxamides Inhibit the Replication of the Bovine Viral Diarrhea Virus by Targeting a Hot Spot for the Inhibition of Pestivirus Replication in the RNA-Dependent RNA Polymerase” (Molecules, 2020) can be followed below.

Compound `O=C(Nc1ccn(-c2ccc(F)cc2)n1)c1cc(-c2cccnc2)nc2ccccc12` [CSFC-129, Fc1ccc(cc1)n2ccc(n2)NC(=O)c4cc(nc3ccccc34)c5cccnc5] had a cytotoxic concentration (CC50) at 5 days in series [1] of 68 µM. In the series on BVDV NADL virus, this compound came in with an EC50 of 1.4 µM and a S.I. of 49. Besides, the fold increase in the series on BVDV NADL virus (setting [2]) worked out at 0.14.

`Cc1cccc(-n2ccc(NC(=O)c3cc(-c4cccnc4)nc4ccccc34)n2)c1` [CSFC-130, Cc1cccc(c1)n2ccc(n2)NC(=O)c4cc(nc3ccccc34)c5cccnc5] had a 50% cytotoxic concentration (CC50) at 5 days in series [1] of 5 µM. Further, the EC50 with BVDV NADL virus is 0.02 µM. In addition, the fold increase with BVDV NADL virus (setting [2]) turned out to be 10.00.

In series [1], `O=C(Nc1ccn(-c2ccccc2Cl)n1)c1cc(-c2ccccc2)nc2ccccc12` [CSFC-131, Clc1ccccc1n2ccc(n2)NC(=O)c4cc(nc3ccccc34)c5ccccc5] displayed a CC50 at 5 days greater than 100 µM. In the series with BVDV NADL virus, this compound displayed an EC50 of 0.1 µM and a S.I. of 1000. Moreover, the fold increase in the series on BVDV NADL virus (setting [2]) is 2.00.

Take `O=C(Nc1ccn(-c2cccc(Cl)c2)n1)c1cc(-c2ccccc2)nc2ccccc12` [CSFC-132, Clc1cccc(c1)n2ccc(n2)NC(=O)c4cc(nc3ccccc34)c5ccccc5]: in series [1], the 50% cytotoxic concentration (CC50) at 5 days is greater than 100 µM. In addition, the midpoint of the response in the series with BVDV NADL virus, the EC50, lay at 0.02 µM. Moreover, the fold increase with BVDV NADL virus (setting [2]) came to 10.00.

The compound `Cc1cccc(-n2ccc(NC(=O)c3cc(-c4ccccc4)nc4ccccc34)n2)c1` [CSFC-133, Cc1cccc(c1)n2ccc(n2)NC(=O)c4cc(nc3ccccc34)c5ccccc5] had a CC50 at 5 days in series [1] greater than 100 µM. In the series with BVDV NADL virus, it took 0.02 µM to reach a half-maximal effect (EC50). In the series with BVDV NADL virus (setting [2]), the fold increase was determined as 10.00.

As to `O=C(Nc1ccccc1)c1cc(-c2ccccc2)nc2ccccc12` [CSFC-134, O=C(Nc1ccccc1)c1cc(nc2ccccc12)c1ccccc1], in series [1], the CC50 at 5 days is greater than 100 µM. Moreover, in the series on BVDV NADL virus, the EC50 is greater than 100 µM and the S.I. stood at 1. Further, the fold increase in the series with BVDV NADL virus (setting [3]) came out at 0.0007.

As for `O=C(Nc1ccccc1O)c1cc(-c2ccccc2)nc2ccccc12` [CSFC-137, Oc1ccccc1NC(=O)c1cc(nc2ccccc12)c1ccccc1], in series [1], the cytotoxic concentration (CC50) at 5 days was greater than 100 µM. In the series on BVDV NADL virus, this compound yielded a concentration for a half-maximal effect (EC50) greater than 100 µM and a S.I. of 1. The fold increase in the series on BVDV NADL virus (setting [3]) was 0.0007.

In turn, `COc1cccc(NC(=O)c2cc(-c3ccccc3)nc3ccccc23)c1` [CSFC-138, COc1cccc(c1)NC(=O)c1cc(nc2ccccc12)c1ccccc1] came in with a CC50 at 5 days in series [1] greater than 100 µM. In the series with BVDV NADL virus, this compound had an EC50 greater than 100 µM and a S.I. of 1. In addition, the fold increase in the series on BVDV NADL virus (setting [3]) was 0.0007.

As to `COc1ccc(NC(=O)c2cc(-c3ccccc3)nc3ccccc23)cc1` [CSFC-139, COc1ccc(cc1)NC(=O)c1cc(nc2ccccc12)c1ccccc1], the CC50 at 5 days in series [1] is greater than 100 µM. In the series on BVDV NADL virus, this compound showed an EC50 greater than 100 µM and a S.I. of 1. In addition, the fold increase in the series on BVDV NADL virus (setting [3]) is given as 0.0007.

For `Cc1ccc(-n2ccc(NC(=O)c3cc(-c4cccnc4)nc4ccccc34)n2)cc1` [CSFC-140, Cc1ccc(cc1)n2ccc(n2)NC(=O)c4cc(nc3ccccc34)c5cccnc5], the CC50 at 5 days in series [1] amounted to 16 µM. In addition, the response in the series with BVDV NADL virus was half-maximal at 0.02 µM (EC50). Further, in the series with BVDV NADL virus (setting [2]), the fold increase is on record as 10.00.

With `Cc1ccc(-n2ccc(NC(=O)c3cc(-c4ccccc4)nc4ccccc34)n2)cc1` [CSFC-141, Cc1ccc(cc1)n2ccc(n2)NC(=O)c4cc(nc3ccccc34)c5ccccc5], in series [1], the CC50 at 5 days was greater than 100 µM. In the series on BVDV NADL virus, the EC50 was determined as 0.6 µM and the S.I. came to 167. Also, the fold increase in the series on BVDV NADL virus (setting [2]) came to 0.33.

Take `Cc1ccccc1-n1ccc(NC(=O)c2cc(-c3ccccc3)nc3ccccc23)n1` [CSFC-142, Cc1ccccc1n2ccc(n2)NC(=O)c4cc(nc3ccccc34)c5ccccc5]: the CC50 at 5 days in series [1] came out at 23 µM. For the same compound, in the series on BVDV NADL virus, the midpoint of the response, the EC50, lay at 2.3 µM and the S.I. came out at 10. In addition, in the series with BVDV NADL virus (setting [2]), the fold increase came out at 0.09.

The compound `O=C(Nc1ccn(-c2ccccc2)n1)c1cc(-c2cccc3ccccc23)nc2ccccc12` [CSFC-143, O=C(c2cc(nc1ccccc12)c4cccc3ccccc34)Nc5ccn(n5)c6ccccc6] registered a CC50 at 5 days in series [1] greater than 100 µM. In addition, in the series on BVDV NADL virus, the response was half-maximal at 0.1 µM (EC50) and the S.I. was 1000. Besides, in the series with BVDV NADL virus (setting [2]), the fold increase came out at 2.00.

In series [1], `O=C(Nc1ccn(-c2cc(F)cc(F)c2)n1)c1cc(-c2ccccc2)nc2ccccc12` [CSFC-144, Fc1cc(F)cc(c1)n2ccc(n2)NC(=O)c4cc(nc3ccccc34)c5ccccc5] showed a CC50 at 5 days greater than 100 µM. This compound also gave an EC50 with BVDV NADL virus of 0.02 µM. Further, in the series with BVDV NADL virus (setting [2]), the fold increase is listed as 10.00.

Take `Cc1ccc2sc(NC(=O)c3cc(-c4ccccc4)nc4ccccc34)nc2c1C` [CSFC-145, Cc1c(C)ccc2sc(nc12)NC(=O)c1cc(nc2ccccc21)c1ccccc1]: the CC50 at 5 days in series [1] was greater than 100 µM. In addition, the EC50 in the series with BVDV NADL virus was less than 0.02 µM.

For the compound `O=C(Nc1ccn(-c2ccccc2)n1)c1cc(-c2ccc3ccccc3c2)nc2ccccc12` [CSFC-146, O=C(c2cc(nc1ccccc12)c3cc4ccccc4cc3)Nc5ccn(n5)c6ccccc6], in series [1], the CC50 at 5 days is greater than 100 µM. In the series with BVDV NADL virus, the response was half-maximal at 0.03 µM (EC50) and the S.I. was 3333. Also, the fold increase in the series on BVDV NADL virus (setting [2]) worked out at 6.67.

In turn, `O=C(Nc1nc2c(F)cc(Br)cc2s1)c1cc(-c2ccccc2)nc2ccccc12` [CSFC-147, Fc1cc(Br)cc2sc(nc12)NC(=O)c1cc(nc2ccccc21)c1ccccc1] displayed a CC50 at 5 days in series [1] of 6.2 ± 1.1 µM. This compound came in with an EC50 in the series with BVDV NADL virus of 0.01 µM. In the series with BVDV NADL virus (setting [3]), the fold increase is listed as 7.00.

With `O=C(Nc1nc2c(C(F)(F)F)cccc2s1)c1cc(-c2ccccc2)nc2ccccc12` [CSFC-148, FC(F)(F)c1cccc2sc(nc12)NC(=O)c1cc(nc2ccccc21)c1ccccc1], the midpoint of cytotoxicity in series [1], the CC50 at 5 days, lay at 20 ± 1.6 µM. Moreover, in the series with BVDV NADL virus, the EC50 was determined as 0.3 µM and the S.I. is on record as 67. The fold increase in the series with BVDV NADL virus (setting [3]) worked out at 0.23.

In turn, `Cc1cc(C)c2sc(NC(=O)c3cc(-c4ccccc4)nc4ccccc34)nc2c1` [CSFC-149, Cc1cc2nc(NC(=O)c3cc(nc4ccccc43)c3ccccc3)sc2c(C)c1] registered a CC50 at 5 days in series [1] greater than 100 µM. In the series with BVDV NADL virus, this compound yielded a concentration giving a half-maximal response (EC50) of 0.2 µM and a S.I. of 500. In the series on BVDV NADL virus (setting [3]), the fold increase came out at 0.35.

For the compound `O=C(Nc1nc2c(F)cccc2s1)c1cc(-c2ccccc2)nc2ccccc12` [CSFC-150, Fc1cccc2sc(nc12)NC(=O)c1cc(nc2ccccc21)c1ccccc1], the CC50 at 5 days in series [1] was determined as 8 ± 1 µM. In the series with BVDV NADL virus, this compound returned an EC50 of 0.1 µM and a S.I. of 80. Further, the fold increase with BVDV NADL virus (setting [3]) was determined as 0.70.
